In patent US7138113B2, “Glycoprotein matrix compositions and methods related thereto” (Pharmachem Laboratories, Inc., priority 2001, dated 2006):

How the values were obtained:
[1] = tested on: lower density lipoproteins (LDL+VLDL); assay: Inhibition of cupric ion oxidation of lower density lipoproteins (quality of antioxidant activity); conditions: 6 hours
[2] = Stability of CoQ10 in a 50° C. oven open to the air (HPLC); type: physicochemical; conditions: for Loss of CoQ10 after 36 days at 50° C. (equivalent to 3 months at room temperature) / Loss of CoQ10 after 72 days at 50° C. (equivalent to 6 months at room temperature): open to the air
Experimental: 100 mg of USP CoQ10 (Sigma) and a composition from Example 1 was placed in a 10 ml beaker in a 50° C. oven open to the air. The amount of CoQ10 remaining was analyzed by HPLC using a C18 column (Perkin Elmer Pecosil 5, 15 cm) and a solvent of 75% methanol and 25% isopropanol.

Structure (SMILES)	IC50 ([1]; LDL+VLDL oxidation, 25 μM cupric ion, 37° C., based on CoQ10 conc.)	Loss of CoQ10 at 0 days ([2]; 0 days)	Loss of CoQ10 after 36 days at 50° C. (equivalent to 3 months at room temperature) ([2]; listed as USP CoQ10)	Loss of CoQ10 after 36 days at 50° C. (equivalent to 3 months at room temperature) ([2]; listed as commercial CoQ10)	Loss of CoQ10 after 72 days at 50° C. (equivalent to 6 months at room temperature) ([2]; listed as USP CoQ10)	Loss of CoQ10 after 72 days at 50° C. (equivalent to 6 months at room temperature) ([2]; listed as commercial sample)	IC50 ([1]; concentration of selenium to inhibit LDL+VLDL oxidation 50%, cupric ion)
COC1=C(OC)C(=O)C(C/C=C(\C)CC/C=C(\C)CC/C=C(\C)CC/C=C(\C)CC/C=C(\C)CC/C=C(\C)CC/C=C(\C)CC/C=C(\C)CC/C=C(\C)CCC=C(C)C)=C(C)C1=O [CoQ10 (USP), CoEnzyme Q10]	1.33 µM	0%	6.8%	6.8%	16.8%	16.8%	
C[Se]CC[C@H](N)C(=O)O [Selenomethionine]							27 µM
